Values of other authors as cited in US20060093222A1, “Data processing, analysis, and visualization system for use with disparate data types” (priority 1999, published 2006).

How the values were obtained:
[1] = test system: Bacillus subtilis and Bacillus cereus; settings: liquid and semi-solid substrates, aerobic and anaerobic

| Compound | additional patients normal or nearly normal 3 months after their stroke (stroke patients; for every 100 stroke patients treated with t-PA) | rate of fatal ICH (stroke patients; t-PA therapy, stroke patients) [%] | rate of symptomatic intracerebral hemorrhage (ICH) (stroke patients; t-PA therapy, stroke patients) [%] | anti-sporulation effect [1] |
| --- | --- | --- | --- | --- |
| Tissue plasminogen activator [t-PA] | 11-13 | 3 | 6 |  |
| O=S(O)S(=O)(=O)O [metabisulphite] |  |  |  | effective anti-sporulation agent |
